Assays:
Test in all cases: Test E preemergence
barnyardgrass = type: in vivo, Echinochloa crus-galli; conditions: for Barnyardgrass plant response rating: scale 0 to 100 (0 no effect, 100 complete control)
From the text: (§1) Seeds of plant species selected from corn (Zea mays), soybean (Glycine max), velvetleaf (Abutilon theophrasti), lambsquarters (Chenopodium album), wild poinsettia (Euphorbia heterophylla), palmer pigweed (Amaranthus palmeri), waterhemp (common waterhemp, Amaranthus rudis), surinam grass (Brachiaria decumbens), large (Lg) crabgrass (Digitaria sanguinalis), Brazilian crabgrass (Digitaria horizontalis), fall panicum (Panicum dichotomiflorum), giant foxtail (Setaria faberii), green foxtail (Setaria viridis), goosegrass (Eleusine indica), johnsongrass (Sorghum halepense), ragweed (common ragweed, Ambrosia elatior), barnyardgrass (Echinochloa crus-galli), sandbur (southern sandbur, Cenchrus echinatus), arrowleaf sida (Sida rhombifolia), Italian ryegrass (Lolium multiflorum), dayflower (Virginia (VA) dayflower, Commelina virginica), field bindweed (Convolvulus arvensis), morningglory (Ipomoea coccinea), nightshade (eastern black nightshade, Solanum ptycanthum), kochia (Kochia scoparia), yellow nutsedge (Cyperus esculentus), cocklebur (common cocklebur, Xanthium strumarium), smartweed (ladysthumb smartweed, and hairy beggarticks (Bidens pilosa), were planted into a silt loam soil and treated preemergence with test chemicals formulated in a non-phytotoxic solvent mixture which included a surfactant.
(§2) At the same time, plants from these crop and weed species and also horseweed (Canada horseweed, Conyza canadensis), waterhemp_RES1, (ALS & Triazine resistant common waterhemp, Amaranthus rudis), and waterhemp_RES2, (ALS & HPPD resistant common waterhemp, Amaranthus rudis) were planted in pots containing Redi-Earth® planting medium (Scotts Company, 14111 Scottslawn Road, Marysville, Ohio 43041) comprising spaghnum peat moss, vermiculite, wetting agent and starter nutrients were treated with postemergence applications of test chemicals formulated in the same manner. Plants ranged in height from 2 to 18 cm for postemergence treatments (1- to 4-leaf stage). Treated plants and controls were maintained in a greenhouse for 14 to 21 days, after which time all species were compared to controls and visually evaluated. Plant response ratings, summarized in Table E, are based on a scale of 0 to 100 where 0 is no effect and 100 is complete control. A dash (-) response means no test result.

goosegrass = type: in vivo, Eleusine indica; conditions: for Goosegrass plant response rating: scale 0 to 100 (0 no effect, 100 complete control)
From the text: as §1, §2

dayflower = type: in vivo, Commelina virginica; conditions: for Dayflower, VA plant response rating: scale 0 to 100 (0 no effect, 100 complete control)
From the text: as §1, §2

johnsongrass = type: in vivo, Sorghum halepense; conditions: for Johnsongrass plant response rating: scale 0 to 100 (0 no effect, 100 complete control)
From the text: as §1, §2

surinam grass = type: in vivo, Brachiaria decumbens; conditions: for Surinam Grass plant response rating: scale 0 to 100 (0 no effect, 100 complete control)
From the text: as §1, §2

wild poinsettia = type: in vivo, Euphorbia heterophylla; conditions: for Poinsettia, Wild plant response rating: scale 0 to 100 (0 no effect, 100 complete control)
From the text: as §1, §2

large (Lg) crabgrass = type: in vivo, Digitaria sanguinalis; conditions: for Crabgrass, Large plant response rating: scale 0 to 100 (0 no effect, 100 complete control)
From the text: as §1, §2

lambsquarters = type: in vivo, Chenopodium album; conditions: for Lambsquarters plant response rating: scale 0 to 100 (0 no effect, 100 complete control)
From the text: as §1, §2

hairy beggarticks = type: in vivo, Bidens pilosa; conditions: for Beggarticks plant response rating: scale 0 to 100 (0 no effect, 100 complete control)
From the text: as §1, §2

ragweed = type: in vivo, Ambrosia elatior; conditions: for Ragweed plant response rating: scale 0 to 100 (0 no effect, 100 complete control)
From the text: as §1, §2

[1] = 8 g ai/ha, preemergence, scale 0 to 100, 0 is no effect, 100 is complete control
[2] = Preemergence, 62 g ai/ha, scale 0 to 100, 0 no effect, 100 complete control
[3] = preemergence, 125 g ai/ha, scale 0 to 100, 0 no effect, 100 complete control
[4] = 8 g ai/ha, scale 0 to 100, 0 is no effect, 100 is complete control
[5] = 125 g ai/ha, scale 0 to 100, 0 no effect, 100 complete control

## Clc1cnc(Oc2ccccc2-n2cc(Br)cn2)nc1 [Compound 7, 2-[2-(4-bromo-1H-pyrazol-1-yl)phenoxy]-5-chloropyrimidine]
barnyardgrass; [1]
  Plant response rating, Barnyardgrass: 0
barnyardgrass; 16 g ai/ha, preemergence
  Barnyardgrass plant response rating: 0
barnyardgrass; 31 g ai/ha, preemergence
  Barnyardgrass plant response rating: 0
barnyardgrass; [2]
  Plant response rating, Barnyardgrass: 0
barnyardgrass; [3]
  Plant response rating, Barnyardgrass: 0
goosegrass; [4]
  Plant response rating, Goosegrass: 0
goosegrass; 16 g ai/ha
  Goosegrass plant response rating: 0
goosegrass; 31 g ai/ha
  Goosegrass plant response rating: 35
goosegrass; 62 g ai/ha
  Goosegrass plant response rating: 40
goosegrass; [5]
  Plant response rating, Goosegrass: 75
dayflower; [4]
  Plant response rating, Dayflower, VA: 0
dayflower; 16 g ai/ha
  Dayflower, VA plant response rating: 0
dayflower; 31 g ai/ha
  Dayflower, VA plant response rating: 0
dayflower; 62 g ai/ha
  Dayflower, VA plant response rating: 20
dayflower; [5]
  Plant response rating, Dayflower, VA: 65
johnsongrass; [4]
  Plant response rating, Johnsongrass: 0
johnsongrass; 16 g ai/ha
  Johnsongrass plant response rating: 0
johnsongrass; 31 g ai/ha
  Johnsongrass plant response rating: 0
johnsongrass; 62 g ai/ha
  Johnsongrass plant response rating: 40
johnsongrass; [5]
  Plant response rating, Johnsongrass: 50
Surinam grass; [4]
  Plant response rating, Surinam Grass: 0
Surinam grass; 16 g ai/ha
  Surinam Grass plant response rating: 0
Surinam grass; 31 g ai/ha
  Surinam Grass plant response rating: 0
Surinam grass; 62 g ai/ha
  Surinam Grass plant response rating: 10
Surinam grass; [5]
  Plant response rating, Surinam Grass: 35
Wild poinsettia; [4]
  Plant response rating, Poinsettia, Wild: 0
Wild poinsettia; 16 g ai/ha
  Poinsettia, Wild plant response rating: 0
Wild poinsettia; 31 g ai/ha
  Poinsettia, Wild plant response rating: 0
Wild poinsettia; [5]
  Plant response rating, Poinsettia, Wild: 0
Large (Lg) crabgrass; [4]
  Plant response rating, Crabgrass, Large: 0
Large (Lg) crabgrass; 16 g ai/ha
  Crabgrass, Large plant response rating: 0
Large (Lg) crabgrass; 31 g ai/ha
  Crabgrass, Large plant response rating: 70
Large (Lg) crabgrass; 62 g ai/ha
  Crabgrass, Large plant response rating: 75
Large (Lg) crabgrass; [5]
  Plant response rating, Crabgrass, Large: 98
lambsquarters; [4]
  Plant response rating, Lambsquarters: 0
lambsquarters; 16 g ai/ha
  Lambsquarters plant response rating: 0
lambsquarters; 31 g ai/ha
  Lambsquarters plant response rating: 75
lambsquarters; 62 g ai/ha
  Lambsquarters plant response rating: 98
lambsquarters; [5]
  Plant response rating, Lambsquarters: 100
Hairy beggarticks; [1]
  Plant response rating, Beggarticks: 0
Hairy beggarticks; 16 g ai/ha, preemergence
  Beggarticks plant response rating: 0
Hairy beggarticks; 31 g ai/ha, preemergence
  Beggarticks plant response rating: 0
Hairy beggarticks; [2]
  Plant response rating, Beggarticks: 0
Hairy beggarticks; [3]
  Plant response rating, Beggarticks: 0
ragweed; [4]
  Plant response rating, Ragweed: 0
ragweed; 16 g ai/ha
  Ragweed plant response rating: 0
ragweed; 31 g ai/ha
  Ragweed plant response rating: 0
ragweed; 62 g ai/ha
  Ragweed plant response rating: 0
ragweed; [5]
  Plant response rating, Ragweed: 0

Source: patent US9695155B2, “Herbicidal substituted pyrimidinyloxy benzene compounds” (E. I. DU PONT DE NEMOURS AND COMPANY, priority 2013, dated 2017)
